In the experiment the target is T1, Androgen Receptor (AR) in the LNCaP prostate carcinoma cell line (Homo sapiens, UniProt P10275, T878A).
T1 construct: cell based immuno-fluorescence assay using the LNCaP prostate epithelial cell line; host or cells: LNCaP clone FGC
T1 sequence (P10275 1-920 T878A): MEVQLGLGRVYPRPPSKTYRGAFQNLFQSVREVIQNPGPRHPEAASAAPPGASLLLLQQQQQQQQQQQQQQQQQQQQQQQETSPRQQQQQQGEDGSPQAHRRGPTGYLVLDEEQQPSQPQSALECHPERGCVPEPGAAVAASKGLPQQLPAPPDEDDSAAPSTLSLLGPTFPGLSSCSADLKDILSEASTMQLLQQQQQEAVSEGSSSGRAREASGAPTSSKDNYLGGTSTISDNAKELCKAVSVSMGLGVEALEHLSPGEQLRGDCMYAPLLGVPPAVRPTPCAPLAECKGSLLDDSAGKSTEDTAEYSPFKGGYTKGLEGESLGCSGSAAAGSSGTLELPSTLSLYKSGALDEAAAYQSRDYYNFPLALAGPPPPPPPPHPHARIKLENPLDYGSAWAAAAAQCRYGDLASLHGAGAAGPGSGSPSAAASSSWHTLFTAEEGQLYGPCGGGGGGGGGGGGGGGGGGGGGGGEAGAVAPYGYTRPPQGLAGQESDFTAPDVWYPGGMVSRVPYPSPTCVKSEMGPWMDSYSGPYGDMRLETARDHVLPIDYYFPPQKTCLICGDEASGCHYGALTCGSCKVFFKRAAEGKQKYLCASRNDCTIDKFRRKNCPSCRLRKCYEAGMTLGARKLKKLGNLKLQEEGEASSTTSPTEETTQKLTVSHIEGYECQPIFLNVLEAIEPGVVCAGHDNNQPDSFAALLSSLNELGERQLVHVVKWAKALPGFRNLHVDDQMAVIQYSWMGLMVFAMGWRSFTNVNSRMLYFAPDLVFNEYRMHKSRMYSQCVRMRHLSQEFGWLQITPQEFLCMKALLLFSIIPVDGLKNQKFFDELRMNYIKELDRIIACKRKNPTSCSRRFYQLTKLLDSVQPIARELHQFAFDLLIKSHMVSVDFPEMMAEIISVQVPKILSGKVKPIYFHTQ
In words: LNCaP Androgen Receptor Down-Regulation Cell Assay (immunofluorescence end point). The class given is cell-based. The settings on record: LNCaP cells, compound incubation 20-22 hours, concentration giving 50% reduction of the AR signal. The protocol: The ability of compounds to reduce Androgen Receptor (AR) numbers was assessed in a cell based immuno-fluorescence assay using the LNCaP prostate epithelial cell line.
This immunofluorescence end point assay measures the ability of a test compound to down-regulate and reduce measured levels of the AR in the LNCaP prostate carcinoma cell line (LNCaP clone FGC (CRL-1740) obtained from the American Type Culture Collection (ATCC)).
LNCaP cells were cultured in Growth Medium (phenol red free Roswell Park Memorial Institute (RPMI) 1640 (Invitrogen Code no. 11835-063) containing 2 mM L-Glutamine (Invitrogen Code no. 25030-024) and 1% (v/v) Penicillin/Streptomycin (10000 units/ml Penicillin and 10000 μg/ml of Streptomycin utilising penicillin G (sodium salt) and streptomycin sulphate: prepared in normal saline, Invitrogen Code no. 15140122) and 10% (v/v) foetal bovine serum (FBS)) in a 5% CO2 air incubator at 37° C. Cells for assay were harvested from T175 stock flasks by washing once in PBS (phosphate buffered saline, pH 7.4) (Invitrogen Code no. 14190-094) and harvested using 5 mls of 1× Trypsin/ethylaminediaminetetraacetic acid (EDTA) (10× Trypsin-EDTA, 5.0 g/L Trypsin, 2.0 g/L of EDTA.4Na and 8.5 g/L of NaCl, without Phenol Red, Invitrogen Code no. 15400-054) diluted in PBS solution. A 5 ml volume of Growth Medium was added to each flask (as above except that 5% (v/v) charcoal stripped FBS (HyClone Code no. SH30068.03) was included instead of 10% (v/v) FBS). Cells were syringed at least twice using a sterile 18 G×1.5″ (1.2×40 mm) broad gauge needle and cell density was measured using a haemocytometer. Cells were further diluted in Growth Medium plus 5% (v/v) charcoal stripped FBS and seeded at a density of 6.5×10^3 cells per well (in 90 ul) into transparent, black, tissue culture treated 96 well plates (Packard, No. 6005182).
Test data reported herein was generated using two different compounds preparation and dosing methods. In method (1) a 10 mM compound stock solution in 100% (v/v) DMSO was serially diluted in 4-fold steps in 100% (v/v) DMSO using a Thermo Scientific Matrix SerialMate. The diluted compounds were then further diluted 1 in 30 in assay media using a Thermo Scientific Matrix PlateMate and a 10 μl aliquot of this dilution was dosed to cells manually using a multi-channel pipette. In method (2) starting with a 10 mM compound stock solution, the Labcyte Echo 550 was used to generate a compound concentration response set diluted in 30 μl of assay media. The Echo 550 is a liquid handler that uses acoustic technology to perform direct microplate-to-microplate transfers of DMSO compound solutions. The system can be programmed to transfer volumes as low as 2.5 nL in multiple increments between microplates and in so doing generates a serial dilution of compound which is then back-filled to normalise the DMSO concentration across the dilution range. A 10 μl volume of diluted compound is then dosed to cells using a Thermo Scientific Matrix PlateMate.
Plates were incubated overnight at 37° C., 5% CO2. Wells were then dosed with compound prepared by one of the 2 methods above and further incubated for 20-22 hours at 37° C., 5% CO2. Plates were fixed by the addition of 20 μl of 10% (v/v) formaldehyde solution (in PBS) to each well (final formaldehyde conc.=1.67% (v/v)) and left at room temperature for 10 mins. This fixative solution was removed and cells were washed with 250 μl of PBS/0.05% (v/v) Tween 20 (PBST) using an automated plate washer. This process was then repeated twice more.
Immunostaining was performed at room temperature. Cells were permeabilised by the addition of 35 μl of PBS containing 0.5% Tween 20 and incubated for 1 hour at room temperature. Permeabilisation solution was removed and cells were washed with 250 μl of PBST using an automated plate washer. This process was then repeated twice more. […]
Turning to `FC(F)(F)c1nnc2n1N=C(N1CCC(c3c[nH]c4ncccc34)CC1)CC2` [Example 18, 6-[4-(1H-pyrrolo[2,3-b]pyridin-3-yl)piperidin-1-yl]-3-(trifluoromethyl)-7,8-dihydro[1,2,4]triazolo[4,3-b]pyridazine], the IC50 – broadly, the concentration that inhibits the measured activity by half – was determined as 3.2 µM.

The molecule `COCCN(C)C(=O)COc1ccc(C2CCN(C3=Nn4c(nnc4C(F)(F)F)CC3)CC2)cc1` [Example 19, N-(2-methoxyethyl)-N-methyl-2-(4-{1-[3-(trifluoromethyl)-7,8-dihydro[1,2,4]triazolo[4,3-b]pyridazin-6-yl]piperidin-4-yl}phenoxy)acetamide] came in with an IC50 of 2.9 µM.

In turn, `CN(C)C(=O)COc1ccc(C2CCN(C3=Nn4c(nnc4C(F)(F)F)CC3)CC2)cc1` [Example 20, N,N-dimethyl-2-(4-{1-[3-(trifluoromethyl)-7,8-dihydro[1,2,4]triazolo[4,3-b]pyridazin-6-yl]piperidin-4-yl}phenoxy)acetamide] gave an IC50 of 4.1 µM. `CN(CCO)C(=O)COc1ccc(C2CCN(C3=Nn4c(nnc4C(F)(F)F)CC3)CC2)cc1` [Example 21, N-(2-hydroxyethyl)-N-methyl-2-(4-{1-[3-(trifluoromethyl)-7,8-dihydro[1,2,4]triazolo[4,3-b]pyridazin-6-yl]piperidin-4-yl}phenoxy)acetamide]: half-maximal inhibition (IC50) was put at 26 µM. The figure for `CCCCN(C)C(=O)COc1ccc(C2CCN(C3=Nn4c(nnc4C(F)(F)F)CC3)CC2)cc1` [Example 22, N-butyl-N-methyl-2-(4-{1-[3-(trifluoromethyl)-7,8-dihydro[1,2,4]triazolo[4,3-b]pyridazin-6-yl]piperidin-4-yl}phenoxy)acetamide] is 0.46 µM; for `COCCN(C)C(=O)CCCOc1ccc(C2CCN(C3=Nn4c(nnc4C(F)(F)F)CC3)CC2)cc1` [Example 23, N-(2-methoxyethyl)-N-methyl-4-(4-{1-[3-(trifluoromethyl)-7,8-dihydro[1,2,4]triazolo[4,3-b]pyridazin-6-yl]piperidin-4-yl}phenoxy)butanamide] it is 1.3 µM. With `CN(CCO)C(=O)CCCOc1ccc(C2CCN(C3=Nn4c(nnc4C(F)(F)F)CC3)CC2)cc1` [Example 24] the figure was 2.5 µM; with `CCCCC(=O)N1CCN(CCOc2ccc(C3CCN(C4=Nn5c(nnc5C(F)(F)F)CC4)CC3)cc2)CC1` [Example 25, 6-(4-{4-[2-(4-pentanoylpiperazin-1-yl)ethoxy]phenyl}piperidin-1-yl)-3-(trifluoromethyl)-7,8-dihydro[1,2,4]triazolo[4,3-b]pyridazine], 0.93 µM; with `CS(=O)(=O)N1CCN(CCOc2ccc(C3CCN(C4=Nn5c(nnc5C(F)(F)F)CC4)CC3)cc2)CC1` [Example 26, 6-[4-(4-{2-[4-(methylsulfonyl)piperazin-1-yl]ethoxy}phenyl)piperidin-1-yl]-3-(trifluoromethyl)-7,8-dihydro[1,2,4]triazolo[4,3-b]pyridazine], 1.5 µM. `CCCCC(=O)N1CCN(CCCOc2ccc(C3CCN(C4=Nn5c(nnc5C(F)(F)F)CC4)CC3)cc2)CC1` [Example 27, 6-(4-{4-[3-(4-pentanoylpiperazin-1-yl)propoxy]phenyl}piperidin-1-yl)-3-(trifluoromethyl)-7,8-dihydro[1,2,4]triazolo[4,3-b]pyridazine] came in with an IC50 of 0.67 µM.

The molecule `CS(=O)(=O)N1CCN(CCCOc2ccc(C3CCN(C4=Nn5c(nnc5C(F)(F)F)CC4)CC3)cc2)CC1` [Example 28, 6-[4-(4-{3-[4-(methylsulfonyl)piperazin-1-yl]propoxy}phenyl)piperidin-1-yl]-3-(trifluoromethyl)-7,8-dihydro[1,2,4]triazolo[4,3-b]pyridazine] returned an IC50 of 1 µM. With `CC(=O)N1CCN(CCCOc2ccc(N3CCN(C4=Nn5c(nnc5C(F)(F)F)CC4)CC3)cc2)CC1` [Example 29, 6-(4-{4-[3-(4-acetylpiperazin-1-yl)propoxy]phenyl}piperazin-1-yl)-3-(trifluoromethyl)-7,8-dihydro[1,2,4]triazolo[4,3-b]pyridazine] the figure was 10 µM; with `CCCCC(=O)N1CCN(CCCOc2ccc(N3CCN(C4=Nn5c(nnc5C(F)(F)F)CC4)CC3)cc2)CC1` [Example 30, 6-(4-{4-[3-(4-pentanoylpiperazin-1-yl)propoxy]phenyl}piperazin-1-yl)-3-(trifluoromethyl)-7,8-dihydro[1,2,4]triazolo[4,3-b]pyridazine], 6.7 µM. Molecule `CS(=O)(=O)N1CCN(CCCOc2ccc(N3CCN(C4=Nn5c(nnc5C(F)(F)F)CC4)CC3)cc2)CC1` [Example 31] gave an IC50 of 18 µM.

`CC(=O)N1CCN(CCOc2ccc(N3CCN(C4=Nn5c(nnc5C(F)(F)F)CC4)CC3)cc2)CC1` [Example 32, 6-(4-{4-[2-(4-acetylpiperazin-1-yl)ethoxy]phenyl}piperazin-1-yl)-3-(trifluoromethyl)-7,8-dihydro[1,2,4]triazolo[4,3-b]pyridazine]: the IC50 came to 20 µM. With `CCCCC(=O)N1CCN(CCOc2ccc(N3CCN(C4=Nn5c(nnc5C(F)(F)F)CC4)CC3)cc2)CC1` [Example 33, 6-(4-{4-[2-(4-pentanoylpiperazin-1-yl)ethoxy]phenyl}piperazin-1-yl)-3-(trifluoromethyl)-7,8-dihydro[1,2,4]triazolo[4,3-b]pyridazine] the figure was 7.8 µM; with `CS(=O)(=O)N1CCN(CCOc2ccc(N3CCN(C4=Nn5c(nnc5C(F)(F)F)CC4)CC3)cc2)CC1` [Example 34, 6-[4-(4-{2-[4-(methylsulfonyl)piperazin-1-yl]ethoxy}phenyl)piperazin-1-yl]-3-(trifluoromethyl)-7,8-dihydro[1,2,4]triazolo[4,3-b]pyridazine], 23 µM; with `FC(F)(F)CCCOc1ccc(C2CCN(C3=Nn4c(nnc4C(F)(F)F)CC3)CC2)cc1` [Example 35, 6-{4-[4-(4,4,4-trifluorobutoxy)phenyl]piperidin-1-yl}-3-(trifluoromethyl)-7,8-dihydro[1,2,4]triazolo[4,3-b]pyridazine], 2.3 µM.

The values above are taken from US8258140B2 (Astrazeneca AB, priority 2009, dated 2012).
